The record followed here is US20210070747A1, “2(1H)-QUINOLINONE DERIVATIVE” (priority 2017, published 2021).

Structures are written as SMILES. pIC50: −log10 of the molar value. In brackets after ≈: the same amount, converted by molar mass. Like-named read-outs stand apart in the source and are kept apart here.

Test [1] addresses T1, E. coli DNA gyrase (Escherichia coli, UniProt P0AES6).
T1 construct: made in house; host or cells: E. coli BL21 (DE3)
The test is described as follows: Test for evaluating the activity of inhibiting E. coli DNA gyrase enzyme (Method 2, supercoiling, recombinant gyrA/gyrB complex). Type of test: biochemical. The procedure: The enzymatic activity of E. coli DNA gyrase was measured by a method comprising reacting DNA gyrase and its substrate, relaxed pBR322 (Inspiralis), in the presence of ATP and detecting the post-reaction supercoiled pBR322/relaxed pBR322 ratio with H19.
Specifically, to 1 ng/μL of relaxed pBR322, E. coli DNA gyrase enzyme (the gyrA or gyrB gene was incorporated into the pET15b plasmid and after expressing them in E. coli BL21 (DE3), purification was performed using a Ni-NTA column to form a complex at room temperature) was added at a final concentration of 0.135 nmol/mL and the mixture was incubated for 60 minutes at room temperature. This reaction was carried out in 20 mmol/L tris-HCl buffered solution (pH 8.0) comprising 0.5 mmol/L ATP, 0.005% bridge 35, 35 mmol/L ammonium acetate, 8 mmol/L magnesium chloride, 4.6% glycerol, and 1 mmol/L dithiothreitol. To the reaction mixture, H19 was added to bring the reaction to an end; thereafter, the supercoiled pBR322/relaxed pBR322 ratio was detected at excitation wavelength/emission wavelength=485 nm/535 nm. An inhibition curve was obtained by allowing the analyte compound to be present at varying concentrations during the reaction described above.

Test [2] deals with E. Coli ATCC 25922. Description: Test for evaluating antibacterial activity (E. coli), broth microdilution MIC. Type of test: cell-based. To be noted: Escherichia coli, ATCC25922; 35° C., 18 hours, cation-adjusted Mueller-Hinton medium. Here is the method: Minimum inhibitory concentration (MIC) was measured using the broth microdilution method described below in accordance with a modification of the standard method specified by CLSI (Clinical & Laboratory Standards Institute).
Bacterial cells under test were cultured overnight on a heart infusion agar medium, scraped off and suspended at a concentration equivalent to McFarland 0.5 turbidity; the suspension thus obtained was diluted 10 folds to give a liquid inoculum. The inoculum (0.005 mL) was inoculated on a cation-adjusted Mueller-Hinton medium containing the analyte compound and cultured at 35° C. for 18 hours. A minimum drug concentration at which no bacterial growth was macroscopically visible was designated MIC.

Setting [3] is: Method 2, read-out: E. Coli Gyrase supercoiling IC50.

Regarding `CNc1cccc2cc(C(=O)Nc3cnc(NCCN4CCN(C)CC4)nc3)c(=O)[nH]c12` [Example 34, 8-(methylamino)-N-(2-{[2-(4-methylpiperazine-1-yl)ethyl]amino}pyrimidine-5-yl)-2-oxo-1,2-dihydroquinoline-3-carboxamide], the pIC50 in test [1] (setting [3]) was 7.63. This compound came in with an MIC in test [2] greater than 64 µg/mL.
In the case of `CNc1cccc2cc(C(=O)Nc3cnc(NCc4csc(N)n4)nc3)c(=O)[nH]c12` [Example 35, N-(2-[[(2-Amino-1,3-thiazol-4-yl)methyl]amino]pyrimidin-5-yl)-8-(methylamino)-2-oxo-1,2-dihydroquinoline-3-carboxamide], the pIC50 in test [1] (setting [3]) was 8.83. Moreover, in test [2], the MIC was greater than 4 µg/mL.
As for `CNc1cccc2cc(C(=O)NCCc3noc(=O)[nH]3)c(=O)[nH]c12` [Example 36, 8-(methylamino)-2-oxo-N-[2-(5-oxo-4,5-dihydro-1,2,4-oxadiazole-3-y1)ethyl]-1,2-dihydroquinoline-3-carboxamide], the pIC50 in test [1] (setting [3]) is 7.14. The same compound came in with an MIC in test [2] greater than 32 µg/mL.
For the compound `CNc1cccc2cc(C(=O)Nc3ccc(C(=O)NC(CO)CO)cc3)c(=O)[nH]c12` [Example 38, N-{4-[(1,3-dihydroxypropane-2-yl)carbamoyl]phenyl}-8-(methylamino)-2-oxo-1,2-dihydroquinoline-3-carboxamide], in test [1] (setting [3]), the pIC50 is 5.33.
For `CNc1cccc2cc(C(=O)Nc3cnc(N4CCC(N)(C(=O)O)CC4)nc3)c(=O)[nH]c12.Cl` [Example 39, 4-Amino-1-(5-[[8-(methylamino)-2-oxo-1,2-dihydroquinoline-3-carbonyl]amino]pyrimidin-2-yl)piperidine-4-carboxylic acid-hydrochloride], the pIC50 in test [1] is 7.31. In addition, the MIC in test [2] was greater than 8 µg/mL.
For the compound `CNc1cccc2cc(C(=O)Nc3cnc(NCCCN(CCO)CCO)nc3)c(=O)[nH]c12` [Example 41, N-[2-({3-[bis(2-hydroxyethyl)amino]propyl}amino)pyrimidine-5-yl]-8-(methylamino)-2-oxo-1,2-dihydroquinoline-3-carboxamide], the pIC50 in test [1] (setting [3]) is 6.83. In test [2], this compound showed an MIC greater than 64 µg/mL.
For the compound `CNc1cc(F)cc2cc(C(=O)N(C)c3cncnc3)c(=O)[nH]c12` [Example 61, 6-fluoro-N-methyl-8-(methylamino)-2-oxo-N-(pyrimidine-5-yl)-1,2-dihydroquinoline-3-carboxamide], in test [1] (setting [3]), the pIC50 is 6.48.
On to `CNc1cc(F)cc2cc(C(=O)Nc3cnc(C(=O)NCCCN4CCOCC4)nc3)c(=O)[nH]c12` [Example 82, 6-fluoro-8-(methylamino)-N-(2-{[3-(morpholine-4-yl)propyl]carbamoyl}pyrimidine-5-yl)-2-oxo-1,2-dihydroquinoline-3-carboxamide], for which the pIC50 in test [1] (setting [3]) is 9.33. This compound showed an MIC in test [2] of 0.25 µg/mL (≈ 0.517 µM).
Regarding `CNc1cc(F)cc2cc(C(=O)Nc3ccc(C(=O)NCCN4CCOCC4)cc3CN(C)C3CCN(C)CC3)c(=O)[nH]c12` [Example 84, 6-fluoro-8-(methylamino)-N-(2-{[methyl(1-methylpiperidine-4-yl)amino]methyl}-4-{[2-(morpholine-4-yl)ethyl]carbamoyl}phenyl)-2-oxo-1,2-dihydroquinoline-3-carboxamide], the pIC50 in test [1] (setting [3]) was 7.94. Further, the MIC in test [2] was greater than 32 µg/mL.
Regarding `CNc1cc(F)cc2cc(C(=O)Nc3ccc(C(=O)NCCN4CCOCC4)cc3C)c(=O)[nH]c12` [Example 86, 6-fluoro-8-(methylamino)-N-(2-methyl-4-{[2-(morpholine-4-yl)ethyl]carbamoyl}phenyl)-2-oxo-1,2-dihydroquinoline-3-carboxamide], in test [1] (setting [3]), the pIC50 was 7.46. In test [2], this compound returned an MIC greater than 4 µg/mL.
For `CNc1cc(F)cc2cc(C(=O)Nc3nccn3C)c(=O)[nH]c12` [Example 87, 6-fluoro-8-(methylamino)-N-(1-methyl-1H-imidazole-2-yl)-2-oxo-1,2-dihydroquinoline-3-carboxamide], the negative-log IC50 (pIC50) in test [1] (setting [3]) was 5.98.
For the compound `CNc1cc(F)cc2cc(C(=O)Nc3ccn(C)n3)c(=O)[nH]c12` [Example 88, 6-fluoro-8-(methylamino)-N-(1-methyl-1H-pyrazole-3-yl)-2-oxo-1,2-dihydroquinoline-3-carboxamide], the inhibition at 10 µM in test [1] (Method 2, at 10000 nM) was 41%.
For the compound `CNc1cc(F)cc2cc(C(=O)Nc3ccnn3C)c(=O)[nH]c12` [Example 89, 6-fluoro-8-(methylamino)-N-(1-methyl-1H-pyrazole-5-yl)-2-oxo-1,2-dihydroquinoline-3-carboxamide], the pIC50 in test [1] (setting [3]) was 7.52. This compound gave an MIC in test [2] greater than 8 µg/mL.
Consider `CNc1cc(F)cc2cc(C(=O)Nc3cnc(C(=O)NCCN4CCCCC4)nc3)c(=O)[nH]c12.O=CO` [Example 90, 6-fluoro-8-(methylamino)-2-oxo-N-(2-{[2-(piperidine-1-yl)ethyl]carbamoyl}pyrimidine-5-yl)-1,2-dihydroquinoline-3-carboxamide-formate], for which the pIC50 in test [1] is 8.61. The same compound had an MIC in test [2] greater than 16 µg/mL.
Take `CNc1cc(F)cc2cc(C(=O)Nc3ccc(C(=O)NO)cc3)c(=O)[nH]c12` [Example 92, 6-Fluoro-N-[4-(hydroxycarbamoyl)phenyl]-8-(methylamino)-2-oxo-1,2-dihydroquinoline-3-carboxamide]: in test [1] (setting [3]), the pIC50 was 8.59. Moreover, the MIC in test [2] was greater than 4 µg/mL.
As to `CCc1cc(C(=O)NCCN2CCOCC2)ccc1NC(=O)c1cc2cc(F)cc(NC)c2[nH]c1=O` [Example 94, N-(2-ethyl-4-{[2-(morpholine-4-yl)ethyl]carbamoyl}phenyl)-6-fluoro-8-(methylamino)-2-oxo-1,2-dihydroquinoline-3-carboxamide], the pIC50 in test [1] (setting [3]) is 6.88. The same compound had an MIC in test [2] greater than 2 µg/mL.
Consider `CNc1cc(F)cc2cc(C(=O)Nc3ccc(C(=O)O)cc3CN(C)C3CC3)c(=O)[nH]c12` [Example 97, 3-{[cyclopropyl (methyl)amino]methyl}-4-{[6-fluoro-8-(methylamino)-2-oxo-1,2-dihydroquinoline-3-carbonyl]amino} benzoic acid], for which the negative-log IC50 (pIC50) in test [1] is 9.22. Further, the MIC in test [2] is greater than 8 µg/mL.
As for `CCCCCN(CCCCC)Cc1cc(C(=O)O)ccc1NC(=O)c1cc2cc(F)cc(NC)c2[nH]c1=O` [Example 101, 3-[(dipentylamino)methyl]-4-{[6-fluoro-8-(methylamino)-2-oxo-1,2-dihydroquinoline-3-carbonyl]amino} benzoic acid], the pIC50 in test [1] (setting [3]) is 9.10.
Take `CNc1cc(F)cc2cc(C(=O)Nc3ccc(C(=O)O)cc3CCC3CCCCC3)c(=O)[nH]c12` [Example 102, 3-(2-cyclohexylethyl)-4-{[6-fluoro-8-(methylamino)-2-oxo-1,2-dihydroquinoline-3-carbonyl]amino} benzoic acid]: in test [1], the pIC50 was 6.64.
Regarding `CNc1cc(F)cc2cc(C(=O)Nc3ccc(C(=O)O)cc3CN(CCCN(C)C)CCCN(C)C)c(=O)[nH]c12` [Example 105, 3-({bis[3-(dimethylamino)propyl]amino}methyl)-4-{[6-fluoro-8-(methylamino)-2-oxo-1,2-dihydroquinoline-3-carbonyl]amino} benzoic acid], the pIC50 in test [1] (setting [3]) is 7.53. In test [2], this compound registered an MIC greater than 32 µg/mL.
As for `CNc1cc(F)cc2cc(C(=O)Nc3ccc(C(=O)O)cc3CN3CCCC(N)C3)c(=O)[nH]c12.Cl` (stereo not shown) [Example 109, 3-[(3-Aminopiperidin-1-yl)methyl]-4-[[6-fluoro-8-(methylamino)-2-oxo-1,2-dihydroquinoline-3-carbonyl]amino]benzoic acid-hydrochloride], the pIC50 in test [1] was 7.82. Also, the MIC in test [2] is greater than 32 µg/mL.
Turning to `CNc1cc(F)cc2cc(C(=O)Nc3ccc(C(=O)O)cc3CCN(C)C3CCCCC3)c(=O)[nH]c12` [Example 111, 3-{2-[cyclohexyl (methyl)amino]ethyl}-4-{[6-fluoro-8-(methylamino)-2-oxo-1,2-dihydroquinoline-3-carbonyl]amino} benzoic acid], the pIC50 in test [1] (setting [3]) is 8.53. The compound further showed an MIC in test [2] greater than 32 µg/mL.
`CCCCCN(CCCCC)Cc1cc(C(=O)O)ccc1NC(=O)c1cc2cncc(NC)c2[nH]c1=O` [Example 112, 3-[(dipentylamino)methyl]-4-{[8-(methylamino)-2-oxo-1,2-dihydro-1,6-naphthyridine-3-carbonyl]amino}benzoic acid]: the pIC50 in test [1] (setting [3]) was 8.38. This compound also yielded an MIC in test [2] greater than 64 µg/mL.
As for `CNc1cc(F)cc2cc(C(=O)Nc3ccc(C(=O)O)cc3CNC3CCCCC3)c(=O)[nH]c12.O=C(O)C(F)(F)F` [Example 113, 3-[(cyclohexylamino)methyl]-4-{[6-fluoro-8-(methylamino)-2-oxo-1,2-dihydroquinoline-3-carbonyl]amino}benzoic acid-trifluoroacetate], the pIC50 in test [1] was 9.59. The MIC in test [2] turned out to be 32 µg/mL.
As for `CNc1cc(F)cc2cc(C(=O)Nc3ccc(CO)cc3CN(CCO)C3CCCCC3)c(=O)[nH]c12` [Example 124, N-[2-{[cyclohexyl(2-hydroxyethyl)amino]methyl}-4-(hydroxymethyl)phenyl]-6-fluoro-8-(methylamino)-2-oxo-1,2-dihydroquinoline-3-carboxamide], the pIC50 in test [1] (setting [3]) is 8.80.
